Assays:
Assay type in all cases: cell-based
[1] = test system: B16F10 (malignant melanoma); experiment: Antiproliferative activity (CCK-8 cell viability), B16F10; details: Mus musculus, 72 h, read-out: Antiproliferative activity in cancerous cells, B16F10 (inhibition of cell growth); for inhibition at 3.3 µM: B16-F10, Compound concentration: 3.3 μM; for inhibition at 10 µM: B16-F10, Compound concentration: 10 μM
Method in brief: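 B16F10 melanoma cells grown in DMEM with 10% FBS were plated in 96-well plates at 2,000-5,000 cells/well. After attachment they were exposed to compound in medium for 72 h at 37° C. CCK-8 solution (10 μL) was then added, and after 4 h at 37° C absorbance was read at 450 nm.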

[2] = test system: A431 (epidermoid carcinoma); experiment: Antiproliferative activity (CCK-8 cell viability), A431; details: Homo sapiens, 72 h, read-out: Antiproliferative activity in cancerous cells, A431 (inhibition of cell growth); for inhibition at 3.3 µM: A-431, Compound concentration: 3.3 μM; for inhibition at 10 µM: A-431, Compound concentration: 10 μM
Method in brief: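 A431 epidermoid carcinoma cells grown in DMEM with 10% FBS were plated at 2,000-5,000 cells/well in 96-well plates. After attachment they were exposed to compound at 3.3 μM, 10 μM, or 30 μM for 72 h at 37° C. Viability was then assessed by CCK-8 against DMSO vehicle-treated wells.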

SW480 (colon cancer) = experiment: Antiproliferative activity (CCK-8 cell viability), SW480; details: Homo sapiens, 72 h, read-out: Antiproliferative activity in cancerous cells, SW480 (inhibition of cell growth); for inhibition at 3.3 µM: Compound concentration: 3.3 μM; for inhibition at 10 µM: Compound concentration: 10 μM
Method in brief: (§1)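 Cells grown in DMEM (HepG2, SW480), MEM (HeLa) or F-12K (A549), each with 10% FBS, then exposed to compound at 3.3, 10 or 30 μM for 72 h at 37 °C. CCK-8 absorbance at 450 nm; viability expressed as percent of DMSO-treated cells, graded as growth inhibition bands.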

[3] = test system: A549 (lung adenocarcinoma); experiment: Antiproliferative activity (CCK-8 cell viability), A549; details: Homo sapiens, 72 h, read-out: Antiproliferative activity in cancerous cells, A549 (inhibition of cell growth); for inhibition at 3.3 µM: Compound concentration: 3.3 μM; for inhibition at 10 µM: Compound concentration: 10 μM
Method in brief: as §1

HeLa (cervical cancer) = experiment: Antiproliferative activity (CCK-8 cell viability), HeLa; details: Homo sapiens, 72 h, read-out: Antiproliferative activity in cancerous cells, HELA (inhibition of cell growth); for inhibition at 3.3 µM: Compound concentration: 3.3 μM; for inhibition at 10 µM: Compound concentration: 10 μM
Method in brief: as §1

[4] = test system: MDA-MB-231 (breast cancer); experiment: Antiproliferative activity (CCK-8 cell viability), MDA-MB-231; details: Homo sapiens, 72 h; for inhibition at 3.3 µM: Compound concentration: 3.3 μM; for inhibition at 3.3 µM / inhibition at 10 µM: read-out: Antiproliferative activity in cancerous cells, MDA-MB-231 (inhibition of cell growth); for inhibition at 10 µM: Compound concentration: 10 μM
Method in brief: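 MDA-MB-231 breast cancer cells, grown in DMEM with 10% FBS, were plated in 96-well plates at 2,000-5,000 cells/well. Once attached, they were exposed to compound and incubated at 37° C. for 72 h. Viability was then measured with CCK-8 (10 μL per well, 4 h at 37° C.) by absorbance at 450 nm, relative to DMSO vehicle wells.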

HepG2 (liver cancer) = experiment: Antiproliferative activity (CCK-8 cell viability), HepG2; details: Homo sapiens, 72 h, read-out: Antiproliferative activity in cancerous cells, HepG2 (inhibition of cell growth); for inhibition at 3.3 µM: Compound concentration: 3.3 μM; for inhibition at 10 µM: Compound concentration: 10 μM
Method in brief: as §1

Compound	inhibition at 3.3 µM [1]	inhibition at 10 µM [1]	inhibition at 3.3 µM [2]	inhibition at 10 µM [2]	inhibition at 3.3 µM (SW480 (colon cancer))	inhibition at 10 µM (SW480 (colon cancer))	inhibition at 3.3 µM [3]	inhibition at 10 µM [3]	inhibition at 3.3 µM (HeLa (cervical cancer))	inhibition at 10 µM (HeLa (cervical cancer))	inhibition at 3.3 µM [4]	inhibition at 10 µM [4]	inhibition at 3.3 µM (HepG2 (liver cancer))	inhibition at 10 µM (HepG2 (liver cancer))	inhibition at 30 µM ([4]; Compound concentration: 30 μM, read-out: Antiproliferative activity in cancerous cells, MDA-MB-231)
COc1ccc(Oc2cccc(/C=C3/C(C)=C(CC(=O)O)c4cc(Cl)ccc43)c2)cc1 [C92, (Z)-2-(5-Chloro-1-(3-(4-methoxyphenoxy)benzylidene)-2-methyl-1H-inden-3-yl)acetic acid]	< 30%	< 30%	≥ 50%	≥ 50%	≥ 50%	≥ 50%	< 30%	≥ 50%	≥ 50%	≥ 50%	< 30%	< 30%	≥ 50%	≥ 50%	
CC1=C(CC(=O)O)c2cc(Cl)ccc2/C1=C\c1cccc(Oc2ccc(Cl)cc2)c1 [C93, (Z)-2-(5-Chloro-1-(3-(4-chlorophenoxy)benzylidene)-2-methyl-1H-inden-3-yl)acetic acid]	≥ 50%	≥ 50%	≥ 50%	≥ 50%	< 30%	30 to 50%	< 30%	≥ 50%	< 30%	≥ 50%	< 30%	≥ 50%	≥ 50%	≥ 50%	< 30%
CC1=C(CC(=O)O)c2cc(Cl)ccc2/C1=C\c1cccc(Oc2ccc(C#N)cc2)c1 [C94, (Z)-2-(5-Chloro-1-(3-(4-cyanophenoxy)benzylidene)-2-methyl-1H-inden-3-yl)acetic acid]	30 to 50%	30 to 50%	≥ 50%	≥ 50%	< 30%	< 30%	< 30%	≥ 50%	< 30%	≥ 50%	< 30%	30 to 50%	< 30%	≥ 50%	
CC1=C(CC(=O)O)c2cc(F)ccc2/C1=C\c1cccc(Oc2ccc(C)cc2)c1 [C96, (Z)-2-(5-Fluoro-2-methyl-1-(3-(p-tolyloxy)benzylidene)-1H-inden-3-yl)acetic acid]	30 to 50%	30 to 50%	≥ 50%	≥ 50%	< 30%	< 30%	< 30%	≥ 50%	30 to 50%	≥ 50%	< 30%	< 30%	30 to 50%	≥ 50%	
CC1=C(CC(=O)O)c2cc(F)ccc2/C1=C\c1cccc(Oc2ccc(Br)cc2)c1 [C97, (Z)-2-(1-(3-(4-Bromophenoxy)benzylidene)-5-fluoro-2-methyl-1H-inden-3-yl)acetic acid]	30 to 50%	≥ 50%	< 30%	< 30%	< 30%	< 30%	< 30%	30 to 50%	< 30%	≥ 50%	< 30%	< 30%	< 30%	≥ 50%	
CC1=C(CC(=O)O)c2cc(F)ccc2/C1=C\c1cccc(Oc2ccc(F)c(F)c2)c1 [C98, (Z)-2-(1-(3-(3,4-Difluorophenoxy)benzylidene)-5-fluoro-2-methyl-1H-inden-3-yl)acetic acid]	30 to 50%	≥ 50%	< 30%	30 to 50%	< 30%	< 30%	< 30%	< 30%	< 30%	≥ 50%	< 30%	30 to 50%	< 30%	≥ 50%	
